From US8309557B2, “Pyrimidin-4-ylpropanedinitrile derivatives, processes for their preparation and their use as herbicides and plant growth regulators” (Bayer Intellectual Property GmbH, priority 2009, dated 2012)

Assays:
Type in all cases: in vivo
Polygonum convolvulus = test: Herbicidal effect pre-emergence, POLCO; conditions: 320 g/hectare, visual grading after 3 weeks vs untreated controls
From the text: (§1) Seeds of mono- and dicotyledonous weed plants and crop plants are planted in wood-fiber pots in sandy loam and covered with earth. The compounds according to the invention, formulated in the form of wettable powders (WP) or as emulsion concentrates (EC), are then applied to the surface of the covering earth as aqueous suspension or emulsion at an application rate corresponding to 320 g/hectare at an application rate of 600 to 800 l of water/ha (converted) with the addition of 0.2% wetting agent.
(§2) Following treatment, the pots are placed in a greenhouse and kept under good growth conditions for the test plants. The visual grading of the damage to the test plants is carried out after a test time of 3 weeks in comparison to untreated controls (herbicidal effect in percent (%): 100% effect=plants have died off, 0% effect=as control plants).

[1] = system: Polygonum (Fallopia) convolvulus; test: Herbicidal effect post-emergence, POLCO
Method: (§3) Seeds of mono- and dicotyledonous weed plants and crop plants are planted in wood-fiber pots in sandy loam, covered with earth and grown in a greenhouse under good growth conditions. 2 to 3 weeks after sowing, the test plants are treated in the single-leaf stage. The compounds according to the invention, formulated in the form of wettable powders (WP) or as emulsion concentrates (EC), are then sprayed onto the green plant parts as aqueous suspension or emulsion using an application rate of 600 to 800 l of water/ha (converted) with the addition of 0.2% by weight of wetting agent. After the test plants had been in the greenhouse for ca. 3 weeks under optimum growth conditions, the effect of the preparations is scored visually in comparison with untreated controls (herbicidal effect in percent (%): 100% effect=plants have died off, 0% effect=as control plants).

Matricaria inodora = test: Herbicidal effect post-emergence, MATIN
Method: as §3

Veronica persica [2] = test: Herbicidal effect pre-emergence, VERPE; conditions: 320 g/hectare, visual grading after 3 weeks vs untreated controls
From the text: as §1, §2

Abutilon theophrasti [3] = test: Herbicidal effect post-emergence, ABUTH
Method: as §3

Veronica persica [4] = test: Herbicidal effect post-emergence, VERPE
Method: as §3

Amaranthus retroflexus [5] = test: Herbicidal effect post-emergence, AMARE
Method: as §3

Lolium multiflorum = test: Herbicidal effect pre-emergence, LOLMU; conditions: for Effect in % in respect of stated plant, LOLMU: 320 g/hectare, visual grading after 3 weeks vs untreated controls
From the text: as §1, §2

Ipomoea purpurea [6] = test: Herbicidal effect post-emergence, PHBPU
Method: as §3

Abutilon theophrasti [7] = test: Herbicidal effect pre-emergence, ABUTH; conditions: for Effect in % in respect of stated plant, ABUTH: 320 g/hectare, visual grading after 3 weeks vs untreated controls
From the text: as §1, §2

Setaria viridis [8] = test: Herbicidal effect pre-emergence, SETVI; conditions: for Effect in % in respect of stated plant, SETVI: 320 g/hectare, visual grading after 3 weeks vs untreated controls
From the text: as §1, §2

Setaria viridis [9] = test: Herbicidal effect post-emergence, SETVI
Method: as §3

Echinochloa crus-galli [10] = test: Herbicidal effect post-emergence, ECHCG
Method: as §3

[11] = system: Tripleurospermum inodorum; test: Herbicidal effect pre-emergence, MATIN; conditions: 320 g/hectare, visual grading after 3 weeks vs untreated controls
From the text: as §1, §2

Amaranthus retroflexus [12] = test: Herbicidal effect pre-emergence, AMARE; conditions: for Effect in % in respect of stated plant, AMARE: 320 g/hectare, visual grading after 3 weeks vs untreated controls
From the text: as §1, §2

Viola tricolor [13] = test: Herbicidal effect pre-emergence, VIOTR; conditions: 320 g/hectare, visual grading after 3 weeks vs untreated controls
From the text: as §1, §2

Viola tricolor [14] = test: Herbicidal effect post-emergence, VIOTR
Method: as §3

Stellaria media [15] = test: Herbicidal effect post-emergence, STEME
Method: as §3

Ipomoea purpurea [16] = test: Herbicidal effect pre-emergence, PHBPU; conditions: 320 g/hectare, visual grading after 3 weeks vs untreated controls
From the text: as §1, §2

Alopecurus myosuroides = test: Herbicidal effect pre-emergence, ALOMY
From the text: as §1, §2

Avena fatua = test: Herbicidal effect pre-emergence, Avena fatua; conditions: 0.32 kg of active substance per hectare, visual grading after 3 weeks
From the text: as §1, §2

Stellaria media [17] = test: Herbicidal effect pre-emergence, STEME; conditions: 0.32 kg of active substance per hectare, visual grading after 3 weeks
From the text: as §1, §2

Echinochloa crus-galli [18] = test: Herbicidal effect pre-emergence, ECHCG; conditions: 0.32 kg of active substance per hectare, visual grading after 3 weeks
From the text: as §1, §2

Sinapis alba = test: Herbicidal effect pre-emergence, Sinapis alba; conditions: 0.32 kg of active substance per hectare, visual grading after 3 weeks
From the text: as §1, §2

[19] = 0.32 kg of active substance per hectare, visual grading after 3 weeks

| SMILES | Effect in % in respect of stated plant, POLCO (Polygonum convolvulus) [%] | Effect in % in respect of stated plant, POLCO [1] [%] | Effect in % in respect of stated plant, MATIN (Matricaria inodora) [%] | Effect in % in respect of stated plant, VERPE (Veronica persica [2]) [%] | Effect in % in respect of stated plant, ABUTH (Abutilon theophrasti [3]) [%] | Effect in % in respect of stated plant, VERPE (Veronica persica [4]) [%] | Effect in % in respect of stated plant, AMARE (Amaranthus retroflexus [5]) [%] | Effect in % in respect of stated plant, PHBPU (Ipomoea purpurea [6]) [%] | Effect in % in respect of stated plant, ABUTH (Abutilon theophrasti [7]) [%] | Effect in % in respect of stated plant, ECHCG (Echinochloa crus-galli [10]) [%] | Effect in % in respect of stated plant, MATIN [11] [%] | Effect in % in respect of stated plant, AMARE (Amaranthus retroflexus [12]) [%] | Effect in % in respect of stated plant, VIOTR (Viola tricolor [13]) [%] | Effect in % in respect of stated plant, STEME (Stellaria media [15]) [%] | Effect in % in respect of stated plant, PHBPU (Ipomoea purpurea [16]) [%] | other results |
| --- | --- | --- | --- | --- | --- | --- | --- | --- | --- | --- | --- | --- | --- | --- | --- | --- |
| N.N#CC(C#N)c1nc(-c2ccc(C(F)(F)F)cc2)nc(N)c1Cl [Compound 318] | 80 | 80 | 90 | 100 | 80 | 90 | – | – | – | – | – | – | – | – | – | – |
| COc1c(Cl)ccc(-c2nc(N)c(Cl)c(C(C#N)C#N)n2)c1F.N [Compound 359] | – | 90 | 90 | 100 | 80 | – | 100 | 80 | 90 | 90 | 100 | 100 | – | – | – | Effect in % in respect of stated plant, LOLMU (Lolium multiflorum): 80%; Effect in % in respect of stated plant, SETVI (Setaria viridis [8]): 90%; Effect in % in respect of stated plant, SETVI (Setaria viridis [9]): 80% |
| N.N#CC(C#N)c1nc(-c2ccc(Cl)cc2)nc(N)c1Cl [Ex. No. 308, Ammonium [6-amino-5-chloro-2-(4-chlorophenyl)pyrimidin-4-yl](dicyano)methanide] | 90 | 100 | 93 | 100 | 93 | 97 | 100 | 90 | 80 | 88 | 90 | 100 | 100 | 92 | 95 | Effect in % in respect of stated plant, VIOTR (Viola tricolor [14]): 88%; Effect in % in respect of stated plant, SETVI (Setaria viridis [8]): 90%; Effect in % in respect of stated plant, SETVI (Setaria viridis [9]): 87%; Effect in % in respect of stated plant, ALOMY (Alopecurus myosuroides; 320 g/hectare, visual grading after 3 weeks vs untreated controls): 80% |
| N#CC(C#N)c1nc(-c2ccc([N+](=O)[O-])cc2)nc(N)c1Cl [compound 9] | – | – | – | 80 | – | – | – | – | – | – | – | – | 90 | – | – | herbicidal effect (Avena fatua): very good herbicidal effect; herbicidal effect (Lolium multiflorum; [19]): very good herbicidal effect; herbicidal effect (Abutilon theophrasti [7]; [19]): very good herbicidal effect; herbicidal effect (Stellaria media [17]): very good herbicidal effect; herbicidal effect (Setaria viridis [8]; [19]): very good herbicidal effect; herbicidal effect (Echinochloa crus-galli [18]): very good herbicidal effect; herbicidal effect (Sinapis alba): very good herbicidal effect; herbicidal effect (Amaranthus retroflexus [12]; [19]): very good herbicidal effect; herbicidal effect (Alopecurus myosuroides; [19]): very good herbicidal effect |
| Cc1ccc(-c2nc(N)c(Cl)c(C(C#N)C#N)n2)c(F)c1F [compound 202] | – | 90 | 80 | 100 | 90 | – | 100 | – | – | 90 | – | 90 | – | – | 100 | – |
| N#CC(C#N)c1nc(C2CC2)nc(N)c1F [compound 248] | – | – | 80 | 90 | – | 90 | 80 | – | – | – | 80 | – | – | 80 | 80 | – |
| N#CC(C#N)c1nc(C2CC2)nc(N)c1Cl [compound 249] | 90 | 90 | 90 | 90 | 83 | 100 | 93 | 90 | 90 | 90 | 90 | 90 | 95 | 80 | 85 | Effect in % in respect of stated plant, VIOTR (Viola tricolor [14]): 87% |
| CC(C)(C)c1nc(N)c(Cl)c(C(C#N)C#N)n1.N [compound 455] | – | – | – | – | – | – | – | – | – | – | – | – | 100 | – | – | Effect in % in respect of stated plant, LOLMU (Lolium multiflorum): 80% |
